pIC50: −log10 of the molar value. Read-outs that look alike come from different tables or passages of the source.
Legend:
[1] = molecular target: T1, Endothelial lipase (EL) (Homo sapiens, UniProt Q9Y5X9); assay: Endothelial lipase (EL) enzymatic assay, fluorescent substrate A10070 in DMPG vesicles; assay type: biochemical; details: compound preincubated 30 min at 37° C
T1 construct: HT-1080 cells that were transformed using RAGE technology (Athersys) to overexpress endogenous EL; endogenous in cells; conditioned medium used
T1 sequence (Q9Y5X9 21-500): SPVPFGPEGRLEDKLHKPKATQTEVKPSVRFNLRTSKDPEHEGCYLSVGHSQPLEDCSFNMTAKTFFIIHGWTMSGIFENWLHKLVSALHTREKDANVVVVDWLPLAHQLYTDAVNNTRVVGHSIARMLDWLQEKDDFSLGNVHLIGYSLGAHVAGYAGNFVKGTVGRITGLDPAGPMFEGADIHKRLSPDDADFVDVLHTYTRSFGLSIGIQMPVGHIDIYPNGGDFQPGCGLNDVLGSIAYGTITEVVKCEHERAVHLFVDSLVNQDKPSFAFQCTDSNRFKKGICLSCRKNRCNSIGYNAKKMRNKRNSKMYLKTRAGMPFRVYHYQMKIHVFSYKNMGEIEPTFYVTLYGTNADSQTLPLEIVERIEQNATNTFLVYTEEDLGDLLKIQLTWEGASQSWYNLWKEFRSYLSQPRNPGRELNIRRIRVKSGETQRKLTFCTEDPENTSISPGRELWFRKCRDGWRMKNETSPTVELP
In short: (§1)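 Substrate A10070 sits in sonicated DMPG vesicles at 0.11 mole fraction. Lipase and compound preincubated 30 min, 37° C, in HEPES pH 8.0 buffer with CaCl2.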

[2] = molecular target: T2, hepatic lipase (HL) (Homo sapiens, UniProt P11150); assay: Hepatic lipase (HL) enzymatic assay, fluorescent substrate A10070 in DMPG vesicles; assay type: biochemical; details: compound preincubated 30 min at 37° C
T2 construct: made in house; host or cells: COS cells (conditioned medium, partially purified)
T2 sequence (P11150 23-499): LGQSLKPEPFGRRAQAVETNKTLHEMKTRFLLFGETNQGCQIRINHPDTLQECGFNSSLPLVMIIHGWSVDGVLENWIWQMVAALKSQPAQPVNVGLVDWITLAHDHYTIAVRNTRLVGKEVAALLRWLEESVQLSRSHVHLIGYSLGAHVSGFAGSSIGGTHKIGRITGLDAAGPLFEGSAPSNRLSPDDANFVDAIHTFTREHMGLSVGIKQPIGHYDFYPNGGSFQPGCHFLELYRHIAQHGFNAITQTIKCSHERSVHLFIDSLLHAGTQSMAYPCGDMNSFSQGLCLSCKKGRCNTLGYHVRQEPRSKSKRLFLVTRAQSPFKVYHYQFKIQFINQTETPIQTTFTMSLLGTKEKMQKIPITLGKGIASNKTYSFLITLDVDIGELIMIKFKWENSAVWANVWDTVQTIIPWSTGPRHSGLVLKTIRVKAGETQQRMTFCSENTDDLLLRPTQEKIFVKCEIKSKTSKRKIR
In short: as §1

[3] = EL from conditioned media of HT-1080 cells, read-out: EL IC50
[4] = HL partially purified from conditioned media of COS cells, read-out: HL IC50

Row | Compound | pIC50 [1, 3] | pIC50 [2, 4] | pIC50 ([1]; EL IC50, EL from conditioned media of HT-1080 cells) | pIC50 ([2]; HL IC50, HL partially purified from conditioned media of COS cells)
1 | CN1CCN(C(=O)c2cccc(-c3ccc4nc(C(c5nnc(CNS(N)(=O)=O)o5)S(C)(=O)=O)sc4c3)c2)CC1 (centres unmarked) [Example 193, N-((5-((6-(3-((4-methyl-1-piperazinyl)carbonyl)phenyl)-1,3-benzothiazol-2-yl)(methylsulfonyl)methyl)-1,3,4-oxadiazol-2-yl)methyl)sulfamide] | > 8.00 | 6.98 | – | –
2 | NS(=O)(=O)NCc1nnc(C(c2nc3ccc(-c4cccc(C(=O)N5CCC(=O)CC5)c4)cc3s2)S(=O)(=O)CCC(F)(F)F)o1 (centres unmarked) [Example 194, N-((5-((6-(3-((4-oxo-1-piperidinyl)carbonyl)phenyl)-1,3-benzothiazol-2-yl)((3,3,3-trifluoropropyl)sulfonyl)methyl)-1,3,4-oxadiazol-2-yl)methyl) sulfamide] | – | – | > 8.00 | 6.77
3 | NS(=O)(=O)NCc1nnc(C(c2nc3ccc(-c4cccc(C(=O)NCC(F)(F)F)c4)cc3s2)S(=O)(=O)CCC(F)(F)F)o1 (centres unmarked) [Example 195, 3-(2-((5-((sulfamoylamino)methyl)-1,3,4-oxadiazol-2-yl)((3,3,3-trifluoropropyl)sulfonyl)methyl)-1,3-benzothiazol-6-yl)-N-(2,2,2-trifluoroethyl)benzamide] | > 8.00 | 6.47 | – | –
4 | NS(=O)(=O)NCc1nnc(C(c2nc3ccc(-c4cccc(C(=O)NCCO)c4)cc3s2)S(=O)(=O)CCC(F)(F)F)o1 (centres unmarked) [Example 196, N-(2-hydroxyethyl)-3-(2-((5-((sulfamoylamino)methyl)-1,3,4-oxadiazol-2-yl)((3,3,3-trifluoropropyl)sulfonyl)methyl)-1,3-benzothiazol-6-yl)benzamide] | > 8.00 | 6.68 | – | –
5 | CN1CCN(C(=O)c2cccc(-c3ccc4nc(C(c5nnc(CNS(N)(=O)=O)o5)S(=O)(=O)CC5CC5)sc4c3)c2)CC1 (centres unmarked) [Example 197, N-((5-(((cyclopropylmethyl)sulfonyl)(6-(3-((4-methyl-1-piperazinyl)carbonyl)phenyl)-1,3-benzothiazol-2-yl)methyl)-1,3,4-oxadiazol-2-yl)methyl)sulfamide] | > 8.00 | 5.59 | – | –
6 | CN1CCN(C(=O)c2cccc(-c3ccc4nc(C(c5nnc(CNS(N)(=O)=O)o5)S(=O)(=O)Cc5ccccc5)sc4c3)c2)CC1 (centres unmarked) [Example 198, N-((5-((benzylsulfonyl)(6-(3-((4-methyl-1-piperazinyl)carbonyl)phenyl)-1,3-benzothiazol-2-yl)methyl)-1,3,4-oxadiazol-2-yl)methyl)sulfamide] | > 8.00 | 5.04 | – | –
7 | COCCNC(=O)c1cccc(-c2ccc3nc(C(c4nnc(CNS(N)(=O)=O)o4)S(=O)(=O)CCC(F)(F)F)sc3c2)c1 (centres unmarked) [Example 199, N-(2-methoxyethyl)-3-(2-((5-((sulfamoylamino)methyl)-1,3,4-oxadiazol-2-yl)((3,3,3-trifluoropropyl)sulfonyl)methyl)-1,3-benzothiazol-6-yl)benzamide] | > 8.00 | 5.99 | – | –
8 | COCCS(=O)(=O)C(c1nnc(CNS(N)(=O)=O)o1)c1nc2ccc(-c3cccc(C(=O)N4CCN(C)CC4)c3)cc2s1 (centres unmarked) [Example 200, N-((5-(((2-methoxyethyl)sulfonyl)(6-(3-((4-methyl-1-piperazinyl)carbonyl)phenyl)-1,3-benzothiazol-2-yl)methyl)-1,3,4-oxadiazol-2-yl)methyl)sulfamide] | > 8.00 | 6.70 | – | –
9 | CN1CCN(C(=O)c2cccc(-c3ccc4nc(C(c5nnc(CNS(N)(=O)=O)o5)S(=O)(=O)CCC(F)(F)F)sc4c3)c2)CC1 (centres unmarked) [Example 201, N-((5-((6-(3-((4-methyl-1-piperazinyl)carbonyl)phenyl)-1,3-benzothiazol-2-yl)((3,3,3-trifluoropropyl)sulfonyl)methyl)-1,3,4-oxadiazol-2-yl)methyl)sulfamide] | > 8.00 | 6.44 | – | –
10 | CS(=O)(=O)C(c1nnc(CNS(N)(=O)=O)o1)c1nc2ccc(-c3cccc(C(=O)N4CC(F)(F)C4)c3)cc2s1 (centres unmarked) [Example 202, N-((5-((6-(3-((3,3-difluoro-1-azetidinyl)carbonyl)phenyl)-1,3-benzothiazol-2-yl)(methylsulfonyl)methyl)-1,3,4-oxadiazol-2-yl)methyl)sulfamide] | > 8.00 | 7.46 | – | –
11 | CC(C)(C)OC(=O)c1cccc(-c2ccc3nc(C(c4nnc(CC5(C)NC(=O)NC5=O)o4)S(C)(=O)=O)sc3c2)c1 (centres unmarked) [Example 203, tert-butyl 3-{2-[methanesulfonyl ({5-[(4-methyl-2,5-dioxoimidazolidin-4-yl)methyl]-1,3,4-oxadiazol-2-yl})methyl]-1,3-benzothiazol-6-yl}benzoate] | 7.48 | 8.70 | – | –
12 | CC1(O)CN(C(=O)c2cccc(-c3ccc4nc(C(c5nnc(CC6(C)NC(=O)NC6=O)o5)S(C)(=O)=O)sc4c3)c2)C1 (centres unmarked) [Example 204, 5-{[5-({6-[3-(3-hydroxy-3-methylazetidine-1-carbonyl)phenyl]-1,3-benzothiazol-2-yl} (methanesulfonyl)methyl)-1,3,4-oxadiazol-2-yl]methyl}-5-methyl-imidazolidine-2,4-dione] | 7.77 | 6.11 | – | –
13 | COCCNC(=O)c1cccc(-c2ccc3nc(C(c4nnc(CC5(C)NC(=O)NC5=O)o4)S(C)(=O)=O)sc3c2)c1 (centres unmarked) [Example 205, 3-{2-[methanesulfonyl({5-[(4-methyl-2,5-dioxoimidazolidin-4-yl)methyl]-1,3,4-oxadiazol-2-yl})methyl]-1,3-benzothiazol-6-yl}-N-(2-methoxyethyl)benzamide] | 7.74 | 6.35 | – | –
14 | CC1(Cc2nnc(C(c3nc4ccc(-c5cccc(C(=O)N6CC(F)C6)c5)cc4s3)S(C)(=O)=O)o2)NC(=O)NC1=O (centres unmarked) [Example 206, 5-{[5-({6-[3-(3-fluoroazetidine-1-carbonyl)phenyl]-1,3-benzothiazol-2-yl} (methanesulfonyl)methyl)-1,3,4-oxadiazol-2-yl]methyl}-5-methyl-imidazolidine-2,4-dione] | 7.80 | 6.90 | – | –
15 | CC1(Cc2nnc(C(c3nc4ccc(-c5cccc(C(=O)N6CC[C@H](O)C6)c5)cc4s3)S(C)(=O)=O)o2)NC(=O)NC1=O (stereo partly drawn) [Example 207, 5-({5-[(6-{3-[(3S)-3-hydroxypyrrolidine-1-carbonyl]phenyl}-1,3-benzothiazol-2-yl) (methanesulfonyl)methyl]-1,3,4-oxadiazol-2-yl}methyl)-5-methyl-imidazolidine-2,4-dione] | 7.66 | 6.43 | – | –
16 | CC1(Cc2nnc(C(c3nc4ccc(-c5cccc(C(=O)N6CC(F)(F)C6)c5)cc4s3)S(C)(=O)=O)o2)NC(=O)NC1=O (centres unmarked) [Example 208, 5-{[5-({6-[3-(3,3-difluoroazetidine-1-carbonyl)phenyl]-1,3-benzothiazol-2-yl} (methanesulfonyl)methyl)-1,3,4-oxadiazol-2-yl]methyl}-5-methyl-imidazolidine-2,4-dione] | 6.75 | 6.88 | – | –
17 | COC1CN(C(=O)c2cccc(-c3ccc4nc(C(c5nnc(CC6(C)NC(=O)NC6=O)o5)S(C)(=O)=O)sc4c3)c2)C1 (centres unmarked) [Example 209, 5-({5-[methanesulfonyl({6-[3-(3-methoxyazetidine-1-carbonyl)phenyl]-1,3-benzothiazol-2-yl})methyl]-1,3,4-oxadiazol-2-yl}methyl)-5-methyl-imidazolidine-2,4-dione] | 7.74 | 6.64 | – | –
18 | CC1(Cc2nnc(C(c3nc4ccc(-c5cccc(C(=O)N6CCOCC6)c5)cc4s3)S(C)(=O)=O)o2)NC(=O)NC1=O (centres unmarked) [Example 210, 5-({5-[methanesulfonyl({6-[3-(morpholine-4-carbonyl)phenyl]-1,3-benzothiazol-2-yl})methyl]-1,3,4-oxadiazol-2-yl}methyl)-5-methyl-imidazolidine-2,4-dione] | 8.05 | 6.44 | – | –
19 | CO[C@@H]1CCN(C(=O)c2cccc(-c3ccc4nc(C(c5nnc(CC6(C)NC(=O)NC6=O)o5)S(C)(=O)=O)sc4c3)c2)C1 (stereo partly drawn) [Example 211, 5-({5-[methanesulfonyl(6-{3-[(3R)-3-methoxy-pyrrolidine-1-carbonyl]phenyl}-1,3-benzothiazol-2-yl)methyl]-1,3,4-oxadiazol-2-yl}methyl)-5-methyl-imidazolidine-2,4-dione] | 8.70 | 6.24 | – | –

— patent US20140011799A1 (Bristol-Myers Squibb Company, priority 2012, published 2014)
